Data taken from patent US5332726A, “Antithrombotic peptides and pseudopeptides” (Rhone-Poulenc Rorer Pharmaceuticals Inc., priority 1992, dated 1994).
pIC50: −log10 of the molar value. Non-standard residues stand in square brackets, D forms with d. Residues, ends and D or L forms follow the SMILES beside them. NMeD = CN[C@@H](CC(=O)O)C(=O)O; Orn = NCCC[C@H](N)C(=O)O

Columns and labels:
[1] = target: fixed activated platelets (Homo sapiens, UniProt P05106+P08514); assay: Platelet Aggregation Assay (fibrinogen-mediated aggregation of fixed-activated platelets); type: cell-based; conditions: for inhibition at 25 µM: read-out: Inhibition of Fibrinogen Mediated Platelet Aggregation % inhibition at 25 μM; for pIC50: fixed activated platelets, human fibrinogen 250 μg/ml, read-out: Inhibition of Fibrinogen Mediated Platelet Aggregation IC50; for inhibition at 100 µM: read-out: Inhibition of Fibrinogen Mediated Platelet Aggregation % inhibition at 100 μM
Protocol: PLATELET AGGREGATION ASSAY
Preparation of Fixed-Activated Platelets
To the activated platelets is added paraformaldehyde to a final concentration of 0.50% and this incubated at room temperature for 30 minutes. The fixed activated platelets are then collected by centrifugation at 650×g for 15 minutes.
Platelet Aggregation Assay
The fixed activated platelets are incubated with a selected dose of the compound to be tested for platelet aggregation inhibition for one minute and aggregation initiated by addition of human fibrinogen to a final concentration of 250 μg/ml. A platelet aggregation profiler Model PAP-4 is used to record the platelet aggregation.

[2] = target: thrombin-stimulated platelets (Homo sapiens, UniProt P05106+P08514); assay: Fibrinogen-Binding Assay (125I-fibrinogen binding to platelets); conditions: 125I-fibrinogen 0.176 μmol/liter, thrombin-stimulated platelets; read-out: Inhibition of 125I-Fibrinogen Binding to Platelets IC50
Protocol: Platelets are washed free of plasma constituents by the albumin density-gradient technique of Walsh, P. N., et al., Br. J. Haematol. […] After these additions, the final platelet count in the mixture is 1×10^11 /liter. After incubation for an additional 30 minutes at 22°-25° C., bound and free ligand are separated by centrifuging 50 μl of the mixture through 300 μl of 20% sucrose at 12,000×g for 4 minutes. The platelet pellet is then separated from the rest of the mixture to determine platelet-bound radioactivity. Nonspecific binding is measured in mixtures containing an excess of unlabeled ligand. […] The IC50 is derived by plotting residual fibrinogen binding against the logarithm of the sample compound's concentration.

fixed activated platelets, sequence (P08514 32-1039): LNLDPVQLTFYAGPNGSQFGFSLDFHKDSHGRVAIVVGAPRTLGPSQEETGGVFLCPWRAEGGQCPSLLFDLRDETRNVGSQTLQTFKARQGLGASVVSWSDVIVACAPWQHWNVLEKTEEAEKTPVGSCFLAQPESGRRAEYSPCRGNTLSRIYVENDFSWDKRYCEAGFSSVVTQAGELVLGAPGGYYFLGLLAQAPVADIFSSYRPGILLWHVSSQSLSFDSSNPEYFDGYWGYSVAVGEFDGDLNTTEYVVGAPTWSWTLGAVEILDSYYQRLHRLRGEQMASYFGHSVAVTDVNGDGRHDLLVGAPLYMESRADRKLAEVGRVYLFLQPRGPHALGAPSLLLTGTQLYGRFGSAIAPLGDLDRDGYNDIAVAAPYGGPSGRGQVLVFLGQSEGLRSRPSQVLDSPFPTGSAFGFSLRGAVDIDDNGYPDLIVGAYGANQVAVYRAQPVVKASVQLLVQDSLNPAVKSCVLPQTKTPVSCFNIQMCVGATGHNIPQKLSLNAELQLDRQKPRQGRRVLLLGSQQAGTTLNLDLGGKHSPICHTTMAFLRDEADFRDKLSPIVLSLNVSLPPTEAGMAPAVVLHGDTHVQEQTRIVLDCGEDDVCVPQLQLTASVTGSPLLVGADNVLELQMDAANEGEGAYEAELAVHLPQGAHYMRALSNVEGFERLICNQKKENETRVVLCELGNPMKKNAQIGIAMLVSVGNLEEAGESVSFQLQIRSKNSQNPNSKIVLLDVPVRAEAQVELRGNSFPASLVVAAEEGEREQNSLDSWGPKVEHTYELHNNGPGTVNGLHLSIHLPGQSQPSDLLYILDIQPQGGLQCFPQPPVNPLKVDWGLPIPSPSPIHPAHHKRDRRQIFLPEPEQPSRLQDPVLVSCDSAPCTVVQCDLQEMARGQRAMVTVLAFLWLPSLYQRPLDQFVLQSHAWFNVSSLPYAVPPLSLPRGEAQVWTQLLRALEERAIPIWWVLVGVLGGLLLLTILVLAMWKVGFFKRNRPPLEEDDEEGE
fixed activated platelets, sequence (P05106 27-788): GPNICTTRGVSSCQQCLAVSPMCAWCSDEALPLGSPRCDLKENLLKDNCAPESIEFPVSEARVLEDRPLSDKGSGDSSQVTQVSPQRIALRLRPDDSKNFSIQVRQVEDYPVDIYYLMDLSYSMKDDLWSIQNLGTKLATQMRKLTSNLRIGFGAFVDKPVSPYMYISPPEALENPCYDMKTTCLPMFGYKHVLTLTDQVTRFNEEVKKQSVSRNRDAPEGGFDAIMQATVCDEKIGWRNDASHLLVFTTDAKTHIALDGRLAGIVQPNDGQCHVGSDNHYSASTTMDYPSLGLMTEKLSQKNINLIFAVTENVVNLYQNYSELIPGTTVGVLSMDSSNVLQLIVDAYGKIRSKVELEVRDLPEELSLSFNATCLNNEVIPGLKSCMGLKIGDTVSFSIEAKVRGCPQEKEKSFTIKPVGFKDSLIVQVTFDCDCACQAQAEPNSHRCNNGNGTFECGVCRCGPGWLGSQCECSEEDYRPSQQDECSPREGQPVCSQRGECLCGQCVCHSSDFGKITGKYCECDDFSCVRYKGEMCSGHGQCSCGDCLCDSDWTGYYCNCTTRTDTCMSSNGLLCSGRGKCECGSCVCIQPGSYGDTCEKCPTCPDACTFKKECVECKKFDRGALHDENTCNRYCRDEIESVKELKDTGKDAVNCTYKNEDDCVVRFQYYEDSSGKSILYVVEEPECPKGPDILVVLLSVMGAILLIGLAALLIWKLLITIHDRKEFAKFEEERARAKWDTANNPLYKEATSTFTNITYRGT
thrombin-stimulated platelets, sequence (P08514 32-1039): as the sequence (P08514 32-1039) above
thrombin-stimulated platelets, sequence (P05106 27-788): as the sequence (P05106 27-788) above

| inhibition at 25 µM [1] | pIC50 [2] | pIC50 [1] | inhibition at 100 µM [1] | SMILES |
| --- | --- | --- | --- | --- |
| 74% |  |  |  | Cc1nccn1CCCCCCCCC(=O)N[C@@H](CC(=O)O)C(=O)N[C@H](C(=O)O)C(C)C |
| 30% | < 3.70 |  |  | CCC(CCCCCCNC(=N)N)C(=O)NC(CC(=O)O)C(=O)N[C@H](C(=O)O)C(C)C (mixture of isomers) [8-Guanidino-2-(R,S)-ethyl-octanoyl-L-aspartyl-L-valine] |
|  | 3.89 | 4.69 | 48% | N=C(N)NCCCCC(=O)NCC(=O)N[C@@H](CC(=O)O)C(=O)N1CCc2ccccc2C1 [2-[N-(5-guanidinopentanoyl)glycyl-L-aspartyl]-1,2,3,4-tetrahydroisoquinoline] |
| 84% | 5.48 | 4.97 |  | CC(C)[C@H](NC(=O)[C@H](CC(=O)O)NC(=O)CN(C)C(=O)CCCNC(=N)N)C(=O)O [4-Guanidinobutanoyl-L-sarcosyl-L-aspartyl-L-valine] |
| 94% | 6.35 | 5.57 |  | CCN(CC(=O)N[C@@H](CC(=O)O)C(=O)N[C@H](C(=O)O)C(C)C)C(=O)CCCNC(=N)N [4-Guanidinobutanoyl-N-(ethyl)glycyl-L-aspartyl-L-valine] |
| 43% | 5.00 | 4.66 |  | CC(C)[C@H](NC(=O)[C@H](CC(=O)O)NC(=O)CNC(=O)CCCNC(=N)N)C(=O)O [4-Guanidinobutanoyl-glycyl-L-aspartyl-L-valine] |
| 95% | 6.82 | 5.82 |  | CC(C)[C@H](NC(=O)[C@H](CC(=O)O)NC(=O)CN(C)C(=O)CCCCn1ccnc1)C(=O)O [5-(Imidazol-1-yl)-pentanoyl-sarcosyl-L-aspartyl-L-valine] |
| 58% | 5.90 | 4.69 |  | CC(C)[C@H](NC(=O)[C@H](CC(=O)O)NC(=O)CNC(=O)CCCCn1ccnc1)C(=O)O [5-(Imidazol-1-yl)-valeroylglycyl-L-aspartyl-L-valine] |
| 91% | 7.40 | 6.20 |  | CCN(CC(=O)N[C@@H](CC(=O)O)C(=O)N[C@H](C(=O)O)C(C)C)C(=O)CCCCNC(=N)N [5-Guanidinopentanoyl-N-ethylglycyl-L-aspartyl-L-valine] |
| 94% | 6.00 | 6.28 |  | CC(C)[C@H](NC(=O)[C@H](CC(=O)O)NC(=O)CN(C)C(=O)CCCCNC(=N)N)C(=O)O [5-Guanidinovaleroyl-sarcosyl-L-aspartyl-L-valine] |
| 93% | 5.72 | 6.64 |  | CCN(CC(=O)N[C@@H](CC(=O)O)C(=O)N[C@@H](CCCNC(=N)N)C(=O)O)C(=O)CCCCNC(=N)N [5-guanidino-N-(ethyl)-glycyl-L-aspartyl-L-arginine] |
| 28% |  |  |  | CC(C)[C@H](NC(=O)[C@H](CC(=O)O)NC(=O)CCCCNC(=N)N)C(=O)O [5-guanidinovaleroyl-L-aspartyl-L-valine] |
| 94% |  |  |  | CC(C)[C@H](NC(=O)[C@H](CC(=O)O)NC(=O)CN(C)C(=O)CCCCCn1ccnc1)C(=O)O [6-(Imidazol-1-yl)-hexanoylsarcosyl-L-aspartyl] |
| 90% |  | 5.35 |  | CCCCOC(=O)[C@@H](NC(=O)[C@H](CC(=O)O)NC(=O)CN(C)C(=O)CCCCCNC(=N)N)C(C)C [6-Guanidinohexanoyl-sarcosyl-L-aspartyl-L-valine-butylester] |
| 18% |  | < 4.60 |  | CCCCOC(=O)C[C@H](NC(=O)CN(C)C(=O)CCCCCNC(=N)N)C(=O)N[C@H](C(=O)O)C(C)C [6-Guanidinohexanoyl-sarcosyl-L-aspartyl-β-butylester-L-valine] |
| 32% |  | < 4.60 |  | CC(C)[C@H](NC(=O)[C@H](CC(=O)O)NC(=O)CCCCCCCNC(=N)N)c1nnn[nH]1 [8-Guanidinooctanoyl-L-aspartyl-L-valine-5-tetrazole] |
| 12% |  |  |  | N=C(N)NCCCCCCCC(=O)NCC(=O)NCC(=O)O [8-Guanidinooctanoyl-glycyl-glycine] |

| inhibition at 25 µM [1] | pIC50 [2] | pIC50 [1] | inhibition at 100 µM [1] | SMILES |
| --- | --- | --- | --- | --- |
| 76% |  |  |  | CCC(C)[C@H](CCCNC(=N)N)NC(=O)[C@H](CC(=O)O)NC(=O)CCCCCCCCNC(=N)N (stereo partly drawn) [9-Guanidinononanoyl-L-aspartyl-((S)-4-amino-4-sec-butylbutyl)guanidine] |
| 4% |  | < 4.60 |  | CC(C)CC(CCCN)(NC(=O)[C@H](CC(=O)O)NC(=O)CCCCCCCCNC(=N)N)C(=O)O (stereo partly drawn) [9-Guanidinononanoyl-L-aspartyl-(R,S)-α-isobutylornithine] |
| 0% |  | < 4.60 |  | COC(=O)[C@](CCCNC(=N)N)(CC(C)C)NC(=O)[C@H](CC(=O)O)NC(=O)CCCCCCCCNC(=N)N [9-Guanidinononanoyl-L-aspartyl-(S)-α-isobutyl-arginine methylester] |
| 98% |  |  |  | CCC(C)C[C@@H](NC(=O)[C@H](CC(=O)O)NC(=O)CCCCCCCCNC(=N)N)C(=O)N[C@@H](CCCNC(=N)N)C(=O)O (stereo partly drawn) [9-Guanidinononanoyl-L-aspartyl-D-homoisoleucyl-L-arginine] |
| 89% |  | 6.27 |  | C[C@H](NC(=O)[C@H](CC(=O)O)NC(=O)CCCCCCCCNC(=N)N)C(=O)N[C@@H](CCCNC(=N)N)C(=O)O [9-Guanidinononanoyl-L-aspartyl-L-alanyl-L-arginine] |
| 91% |  | 5.77 |  | COC(=O)[C@H](CCCNC(=N)N)NC(=O)[C@H](CC(=O)O)NC(=O)CCCCCCCCNC(=N)N [9-Guanidinononanoyl-L-aspartyl-L-arginine methylester] |
| 45% |  | < 4.60 |  | CC[C@H](C)[C@H](NC(=O)[C@@H](NC(=O)[C@H](CC(=O)O)NC(=O)CCCCCCCCNC(=N)N)[C@@H](C)CC)C(=O)O [9-Guanidinononanoyl-L-aspartyl-L-isoleucyl-L-isoleucine] |
| 96% |  | 6.28 |  | CC(C)C[C@H](NC(=O)[C@H](CC(=O)O)NC(=O)CCCCCCCCNC(=N)N)C(=O)N[C@@H](CCCNC(=N)N)C(=O)O [9-Guanidinononanoyl-L-aspartyl-L-leucyl-L-arginine] |
| 96% |  | 5.82 |  | CC(C)(C)[C@H](NC(=O)[C@H](CC(=O)O)NC(=O)CCCCCCCCNC(=N)N)C(=O)N[C@@H](CCCNC(=N)N)C(=O)O [9-Guanidinononanoyl-L-aspartyl-L-t-butylglycyl-L-arginine] |
| 94% |  |  |  | CCC(C)C[C@H](NC(=O)[C@H](CC(=O)O)NC(=O)CCCCCCCCNC(=N)N)C(=O)N[C@@H](CCCNC(=N)N)C(=O)O (stereo partly drawn) [9-Guanidinononanoyl-L-aspartyl-homo-L-isoleucyl-L-arginine] |
| 38% |  |  |  | CC[C@H](C)[C@@H](CN[C@@H](CCCNC(=N)N)C(=O)O)NC(=O)[C@H](CC(=O)O)NC(=O)CCCCCCCCNC(=N)N [9-Guanidinononanoyl-L-aspartyl-β-homo-L-isoleucyl psi(CH2 NH)-L-arginine] |
| 94% |  |  |  | CC(C)C[C@@H](CCCNC(=N)N)NC(=O)[C@H](CC(=O)O)NC(=O)CCCCCCCCNC(=N)N [(R)-4-[N-(9-Guanidinononanoyl-L-aspartyl)-amino]-4-isobutylbutylguanidine] |
|  |  | < 4.19 |  | CC(C)[C@H](NC(=O)[C@H](CC(=O)O)N(C)C(=O)CNC(=O)[C@@H](N)CCCNC(=N)N)C(=O)O [L-arginyl-glycyl-L-N-methylaspartyl-L-valine] (H-RG[NMeD]V-OH) |
|  |  | 4.84 | 91% | N=C(N)NCCC[C@H](N)C(=O)NCC(=O)N[C@@H](CC(=O)O)C(=O)NCC(=O)O [L-arginylglycyl-L-aspartyl glycine] (H-RGDG-OH) |
| 89% |  |  |  | CCC(C)C(CNC(=O)[C@H](CC(=O)O)NC(=O)CCCCCCCCNC(=N)N)C(=O)N[C@@H](CCCNC(=N)N)C(=O)O (stereo partly drawn) [N-(9-Guanidinononanoyl-L-aspartyl)-3-amino-2-sec-butyl propionic acid L-arginine amide] |
|  | 5.68 |  |  | CC(C)C[C@@H](CCC(=O)N[C@@H](CCCNC(=N)N)C(=O)O)NC(=O)[C@H](CC(=O)O)NC(=O)CCCCCCCCNC(=N)N [N-[N-(9-Guanidinononanoyl-L-aspartyl)-(R)-4-amino-4-isobutylbutyryl]-L-arginine] |
|  |  |  | 20% | CC(C)[C@H](NC(=O)[C@@H](N)CCCNC(=O)[C@@H](N)CCCNC(=N)N)C(=O)O [N-δ-(L-arginyl)-L-ornithyl-L-valine] (H-[Orn](Arg)-Val-OH) |

| SMILES | inhibition at 25 µM [1] | pIC50 [2] | pIC50 [1] | inhibition at 100 µM [1] |
| --- | --- | --- | --- | --- |
| CC[C@@H](C)[C@H](CC(=O)NCCCCNC(=N)N)NC(=O)[C@H](CC(=O)O)NC(=O)CCCCCCCCNC(=N)N [9-Guanidinononanoyl-L-aspartyl-D-β-homoiso-leucyl-(des-carboxy)-L-arginine] | 94% |  | 5.48 |  |
| CC(C)[C@H](NC(=O)[C@H](CC(=O)O)NC(=O)CCCCCCCCNC(=N)N)C(=O)N[C@@H](CCCNC(=N)N)C(=O)O [9-Guanidinononanoyl-L-aspartyl-L-valine-L-arginine] | 98% |  | 6.66 |  |
